pIC50: −log10 of the molar value.
How the values were obtained:
[1] = Inhibition of full length human GST tagged LC3 (1 to 120 residues)/p62 (unknown origin) interaction expressed in Escherichia coli BL21 Star (DE3) incubated for 2 hrs by SPR based competitive binding assay
MM1.S [2] = assay: Inhibition of cell growth in human MM1.S cells; format: functional
MM1.S [3] = assay: Inhibition of cell growth in human MM1.S cells incubated for 48 hrs by MTT assay; format: functional, cell-based

SMILES | pIC50 [1] | pIC50 (MM1.S [3]) | further results
O=C1CC(=O)c2ccc3c4c(ccc1c24)C(=O)CC3=O | 5.70 |  | 
Fc1ccc(COc2ccc(CNCC3CCCCC3)cc2OCc2ccc(F)cc2F)c(F)c1 |  |  | IC50 (MM1.S [2]): 840 nM

The next lines start with results.

pIC50 [1] | pIC50 (MM1.S [3]) | SMILES | further results
6.05 |  | O=C(O)CSc1cc(NS(=O)(=O)c2ccc(Br)cc2)c2ccccc2c1O | 
 | 5.34 | OCCNCc1ccc(OCc2ccc(F)cc2)c(OCc2ccc(F)cc2)c1 | 
 | 5.21 | OCCNCc1ccc(OCc2ccccc2)c(OCc2ccccc2)c1 | 
